Measured values from patent US8779156B2, “Analogues for the treatment or prevention of flavivirus infections” (Vertex Pharmaceuticals Incorporated, priority 2010, dated 2014).

System: HCV (1b) replicon, Huh-ET cells
Assay: Cell-based luciferase reporter HCV (1b) RNA replication assay
Details: Hepatitis C virus, 96 h; HCV 1b replicon, luciferase, 4 days incubation; read-out: EC50_1b
Source text: Cell-Based Luciferase Reporter HCV (Ib) RNA Replication Assay Cell Culture
Replicon cell lines Huh-5.2 are derived from the Huh-7 hepatocarcinoma cell line are maintained in culture as generally described in Krieger, N; Lohmann, V; Bartenschlager, R. Enhancement of hepatitis C virus RNA replication by cell culture-adaptive mutations. J. Virol. 2001, 75, 4614-4624. The Huh-5.2 cells contain the highly cell culture-adapted replicon I389luc-ubi-neo/NS3-375.1 construct that carries, in addition to the neomycin gene, an integrated copy to the firefly luciferase gene (Krieger, N; Lohmann, V; Bartenschlager, R. Enhancement of hepatitis C virus RNA replication by cell culture-adaptive mutations. J. Virol. 2001, 75, 4614-4624). This cell line allows measurement of HCV RNA replication and translation by measuring luciferase activity. It has been previously shown that the luciferase activity tightly follows the replicon RNA level in these cells (Krieger, N; Lohmann, V; Bartenschlager, R. Enhancement of hepatitis C virus RNA replication by cell culture-adaptive mutations. J. Virol. 2001, 75, 4614-4624). The Huh-ET cell line has the same features as those mentioned for Huh-5.2 cell line, except that ET cells are more robust and contain an adaptative mutation in the HCV NS4B gene instead of NS5A. Both cell lines are maintained in cultures at a sub-confluent level (<85%) as the level of replicon RNA is highest in actively proliferating cells. The culture media used for cell passaging consist of DMEM (Gibco BRL Laboratories, Mississauga, ON, Canada) supplemented with 10% foetal bovine serum with 1% penicilin/streptomycin, 1% glutamine, 1% sodium pyruvate, 1% non-essential amino acids, and 180 μg/ml of G418 final concentration. Cells are incubated at 37° C., in an atmosphere of 5% CO2 and passaged twice a week to maintain sub-confluence.
Approximately 3000 viable Huh-ET cells (100 μl) are plated per well in a white opaque 96-well microtiter plate. The cell culture media used for the assay is the same as described above except that it contains no G418 and no phenol red. After an incubation period of 3-4 hours at 37° C. in a 5% CO2 incubator, compounds (100 μl) are added at various concentrations. Cells are then further incubated for 4 days at 37° C. in a 5% CO2 incubator. Thereafter, the culture media is removed and cells are lysed by the addition of 95 μL of the luciferase buffer (luciferin substrate in buffered detergent). Cell lysates are incubated at room temperature and protected from direct light for at least 10 minutes. Plates are read for luciferase counts using a luminometer (Wallac MicroBeta Trilux, Perkin Elmer™, MA, USA).
Curves are fitted to data points using nonlinear regression analysis, and IC50s are interpolated from the resulting curve using GraphPad Prism software, version 2.0 (GraphPad Software Inc., San Diego, Calif., USA).

SMILES	EC50 [nM]
COC(=O)N[C@H](C(=O)N1C[C@@H](C)C[C@H]1c1nc(-c2cc3sc(-c4ccc5[nH]c([C@@H]6C[C@H](C)CN6C(=O)[C@@H](NC(=O)OC)C(C)C)nc5c4)cc3s2)c[nH]1)C(C)C [Compound 16, Methyl N-[(1S)-1-[(2S,4S)-2-[4-[5-[2-[(2S,4S)-1-[(2S)-2-(methoxycarbonylamino)-3-methyl-butanoyl]-4-methyl-pyrrolidin-2-yl]-1H-benzimidazol-5-yl]thieno[3,2-b]thiophen-2-yl]-1H-imidazol-2-yl]-4-methyl-pyrrolidine-1-carbonyl]-2-methyl-propyl]carbamate]	≤ 5
COC(=O)N[C@H](C(=O)N1C[C@H](C)C[C@H]1c1nc(-c2ccc(-c3ccc(-c4ccc5[nH]c([C@@H]6C[C@H](C)CN6C(=O)[C@@H](NC(=O)OC)C(C)C)nc5c4)cc3)cc2)c[nH]1)C(C)C [Compound 47]	≤ 5
COC(=O)N[C@H](C(=O)N1C[C@@H](C)C[C@H]1c1nc(-c2cc3sc(-c4ccc5[nH]c([C@@H]6C[C@H](C)CN6C(=O)[C@H](C(C)C)N6CCOC6=O)nc5c4)cc3s2)c[nH]1)C(C)C [Compound 40]	≤ 5
COC(=O)N[C@H](C(=O)N1C[C@@H](C)C[C@H]1c1nc(-c2ccc(-c3ccc4nc([C@@H]5C[C@H](C)CN5C(=O)[C@@H](NC(=O)OC)C(C)C)[nH]c4c3)cc2)c(-c2cc3sccc3s2)[nH]1)C(C)C [Compound 26]	≤ 5
COC(=O)N[C@H](C(=O)N1C[C@@H](C)C[C@H]1c1nc(-c2ccc(-c3ccc(-c4ccc5[nH]c([C@@H]6C[C@H](C)CN6C(=O)[C@@H](NC(=O)OC)C(C)C)nc5c4)cc3F)cc2)c[nH]1)C(C)C [Compound 39]	≤ 5
COC(=O)N[C@H](C(=O)N1C[C@@H](C)CC1c1nc2cc(C#Cc3ccc(C#Cc4cnc([C@@H]5C[C@H](C)CN5C(=O)[C@@H](NC(=O)OC)C(C)C)[nH]4)cc3)ccc2[nH]1)C(C)C (stereo partly drawn) [Compound 29]	≤ 5
COC(=O)NC(C(=O)N1C[C@@H](C)C[C@H]1c1nc2cc(C#Cc3cc4sc(-c5c[nH]c([C@@H]6C[C@H](C)CN6C(=O)[C@@H](NC(=O)OC)C(C)C)n5)cc4s3)ccc2[nH]1)C(C)C (stereo partly drawn) [Compound 45]	≤ 5
CC[C@H]1C[C@@H](c2nc(-c3ccc(-c4ccc(-c5ccc6[nH]c([C@@H]7C[C@H](CC)CN7C(=O)[C@@H](NC(=O)OC)C(C)C)nc6c5)cc4)cc3)c[nH]2)N(C(=O)[C@@H](NC(=O)OC)C(C)C)C1 [Compound 17]	≤ 5
COC(=O)N[C@H](C(=O)N[C@H](C(=O)N1C[C@@H](C)C[C@H]1c1nc(-c2ccc(-c3ccc(-c4ccc5[nH]c([C@@H]6C[C@H](C)CN6C(=O)[C@@H](NC(=O)OC)C(C)C)nc5c4)cc3)cc2)c[nH]1)C(C)C)C(C)C [Compound 55]	≤ 5
COC(=O)N[C@H](C(=O)N1CC(C)(C)C[C@H]1c1nc(-c2ccc(-c3ccc(-c4ccc5[nH]c([C@@H]6CC(C)(C)CN6C(=O)[C@@H](NC(=O)OC)C(C)C)nc5c4)cc3)cc2)c[nH]1)C(C)C [Compound 23]	≤ 5
COC(=O)N[C@H](C(=O)N1C[C@@H](C)C[C@H]1c1nc(-c2ccc(-c3ccc(-c4ccc5[nH]c([C@@H]6C[C@H](C)CN6C(=O)[C@@H](NC(=O)OC)C(C)C)nc5c4)s3)cc2)c[nH]1)C(C)C [Compound 27]	≤ 5
COC(=O)N[C@H](C(=O)N1C[C@@H](C)C[C@H]1c1nc(C)c(-c2ccc(-c3ccc(-c4ccc5[nH]c([C@@H]6C[C@H](C)CN6C(=O)[C@@H](NC(=O)OC)C(C)C)nc5c4)cc3)cc2)[nH]1)C(C)C [Compound 15, Methyl N-[(1S)-1-[(2S,4S)-2-[5-[4-[4-[2-[(2S,4S)-1-[(2S)-2-(methoxycarbonylamino)-3-methyl-butanoyl]-4-methyl-pyrrolidin-2-yl]-1H-benzimidazol-5-yl]phenyl]phenyl]-4-methyl-1H-imidazol-2-yl]-4-methyl-pyrrolidine-1-carbonyl]-2-methyl-propyl]carbamate]	≤ 5
COC(=O)N[C@H](C(=O)N1C[C@@H](C)C[C@H]1c1nc(-c2ccc(-c3ccc(-c4cc5nc([C@@H]6C[C@H](C)CN6C(=O)[C@@H](NC(=O)OC)C(C)C)[nH]c5cc4C)cc3)cc2)c[nH]1)C(C)C [Compound 35]	≤ 5
COC(=O)N[C@H](C(=O)N1C[C@@H](C)C[C@H]1c1nc(C#Cc2cc3sc(-c4ccc5[nH]c([C@@H]6C[C@H](C)CN6C(=O)[C@@H](NC(=O)OC)C(C)C)nc5c4)cc3s2)c[nH]1)C(C)C [Compound 44]	≤ 5
COC(=O)N[C@H](C(=O)N1C[C@@H](C)C[C@H]1c1ncc(-c2csc(-c3ccc(-c4ccc5[nH]c([C@@H]6C[C@H](C)CN6C(=O)[C@@H](NC(=O)OC)C(C)C)nc5c4)cc3)c2)[nH]1)C(C)C [Compound 14]	≤ 5
COC(=O)N[C@H](C(=O)N1C[C@@H](C)C[C@H]1c1ncc(-c2ccc(-c3ccc(-c4ccc5[nH]c([C@@H]6C[C@H](C)CN6C(=O)[C@H](C(C)C)N(C)C(=O)OC)nc5c4)cc3)cc2)[nH]1)C(C)C [Compound 7, ((S)-1-{(2S,4S)-2-[5-(4′-{2-[(2S,4S)-1-((S)-2-Methoxycarbonylamino-3-methyl-butyryl)-4-methyl-pyrrolidin-2-yl]-1H-imidazol-4-yl}-biphenyl-4-yl)-1H-benzoimidazol-2-yl]-4-methyl-pyrrolidine-1-carbonyl}-2-methyl-propyl)-methyl-carbamic acid methyl ester]	≤ 5
COC(=O)N(C)C(C(=O)N1C[C@@H](C)C[C@H]1c1nc(-c2ccc(C#Cc3ccc4[nH]c([C@@H]5C[C@H](C)CN5C(=O)C(C(C)C)N(C)C(=O)OC)nc4c3)cc2)c[nH]1)C(C)C (stereo in doubt) [Compound 10, Methyl N-[(1S)-1-[(2S,4S)-2-[4-[4-[2-[2-[(2S,4S)-1-[(2S)-2-[methoxycarbonyl-(methyl)amino]-3-methyl-butanoyl]-4-methyl-pyrrolidin-2-yl]-1H-benzimidazol-5-yl]ethynyl]phenyl]-1H-imidazol-2-yl]-4-methyl-pyrrolidine-1-carbonyl]-2-methyl-propyl]-N-methyl-carbamate]	≤ 5
COC(=O)N[C@H](C(=O)N1C[C@@H](C)C[C@H]1c1nc(C#Cc2ccc(-c3ccc4[nH]c([C@@H]5C[C@H](C)CN5C(=O)[C@@H](NC(=O)OC)C(C)C)nc4c3)cc2)c[nH]1)C(C)C [Compound 12, Methyl N-[(1S)-1-[(2S,4S)-2-[4-[2-[4-[2-[(2S,4S)-1-[(2S)-2-(methoxycarbonylamino)-3-methyl-butanoyl]-4-methyl-pyrrolidin-2-yl]-1H-benzimidazol-5-yl]phenyl]ethynyl]-1H-imidazol-2-yl]-4-methyl-pyrrolidine-1-carbonyl]-2-methyl-propyl]carbamate]	≤ 5
COC(=O)N[C@H](C(=O)N1C[C@@H](C)C[C@H]1c1nc2cc(-c3ccc(-c4ccc(-c5c[nH]c([C@@H]6C[C@H](C)CN6)n5)cc4)cc3)ccc2[nH]1)C(C)C [Compound 51]	≤ 5
[2H]c1c([2H])c(-c2ccc3[nH]c([C@@H]4C[C@H](C)CN4C(=O)[C@@H](NC(=O)OC)C(C)C)nc3c2)c([2H])c([2H])c1-c1ccc(-c2c[nH]c([C@@H]3C[C@H](C)CN3C(=O)[C@@H](NC(=O)OC)C(C)C)n2)cc1 [Compound 52]	≤ 5
COC(=O)N[C@H](C(=O)N1C[C@@H](C)C[C@H]1c1nc(-c2ccc3sc(-c4ccc5[nH]c([C@@H]6C[C@H](C)CN6C(=O)[C@@H](NC(=O)OC)C(C)C)nc5c4)cc3c2)c[nH]1)C(C)C [Compound 33]	≤ 5
